Data from ChEMBL document CHEMBL1128290, “Opioid receptor binding requirements for the delta-selective peptide deltorphin. I: Phe3 replacement with ring-substituted and heterocyclic amino acids” (J Med Chem, 1995).
pKi: −log10 of the molar value. Square brackets hold non-standard residues; d marks the D form. Peptide text beside a SMILES is read from it. Ala(4-thiazolyl) = N[C@@H](Cc1cscn1)C(=O)O; 2Pal = N[C@@H](Cc1ccccn1)C(=O)O; 3Pal = N[C@@H](Cc1cccnc1)C(=O)O; 2Thi = N[C@@H](Cc1cccs1)C(=O)O

Columns and labels:
Mu-type opioid receptor = Mu-type opioid receptor (Cavia porcellus, UniProt P97266); assay: Inhibition of [3H]DAMGO binding to Opioid receptor mu 1 of guinea pig brain
Sequence of Mu-type opioid receptor (P97266 whole entry): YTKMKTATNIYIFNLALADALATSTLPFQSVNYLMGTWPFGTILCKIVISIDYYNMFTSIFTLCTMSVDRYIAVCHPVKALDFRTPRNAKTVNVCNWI

[1] = biological target: Kappa-type opioid receptor (Cavia porcellus, UniProt P41144); assay: Inhibition of [3H]- U 69593 from Opioid receptor kappa 1 of guinea pig brain
Sequence of Kappa-type opioid receptor (P41144 whole entry): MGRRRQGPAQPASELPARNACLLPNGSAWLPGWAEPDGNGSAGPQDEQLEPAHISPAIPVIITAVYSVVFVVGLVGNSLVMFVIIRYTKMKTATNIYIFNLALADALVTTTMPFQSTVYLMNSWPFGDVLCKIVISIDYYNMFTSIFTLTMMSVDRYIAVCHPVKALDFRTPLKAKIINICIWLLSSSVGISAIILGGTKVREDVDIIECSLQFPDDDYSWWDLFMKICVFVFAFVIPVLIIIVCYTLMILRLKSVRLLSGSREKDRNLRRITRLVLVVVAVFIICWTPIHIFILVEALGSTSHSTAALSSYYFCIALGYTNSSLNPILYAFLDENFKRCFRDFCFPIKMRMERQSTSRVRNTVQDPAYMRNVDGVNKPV

Compound	pKi (Mu-type opioid receptor)	pKi [1]
CC(C)[C@H](NC(=O)[C@H](CC(=O)O)NC(=O)[C@H](Cc1cccc(F)c1)NC(=O)[C@H](C)NC(=O)[C@@H](N)Cc1ccc(O)cc1)C(=O)N[C@H](C(=O)NCC(N)=O)C(C)C (stereo in doubt; 2a)	6.39	< 5.00
Cc1c(C)c(C)c(C[C@H](NC(=O)[C@H](C)NC(=O)[C@@H](N)Cc2ccc(O)cc2)C(=O)N[C@@H](CC(=O)O)C(=O)N[C@H](C(=O)N[C@H](C(=O)NCC(N)=O)C(C)C)C(C)C)c(C)c1C (stereo in doubt; 5a)	< 5.00	< 5.00
CC(C)[C@H](NC(=O)[C@H](CC(=O)O)NC(=O)[C@H](Cc1c(F)c(F)c(F)c(F)c1F)NC(=O)[C@H](C)NC(=O)[C@@H](N)Cc1ccc(O)cc1)C(=O)N[C@H](C(=O)NCC(N)=O)C(C)C	< 5.00	< 5.00
CC(C)[C@H](NC(=O)[C@H](CC(=O)O)NC(=O)[C@H](Cc1cscn1)NC(=O)[C@H](C)NC(=O)[C@@H](N)Cc1ccc(O)cc1)C(=O)N[C@H](C(=O)NCC(N)=O)C(C)C (H-YA[Ala(4-thiazolyl)]DVVG-NH2)	5.55	< 5.00
H-YAHDVVG-NH2	< 5.00	< 5.00
CC(NC(=O)[C@@H](N)Cc1ccc(O)cc1)C(=O)N[C@@H](Cc1ccccc1)C(=O)N[C@@H](CC(=O)O)C(=O)N[C@H](C(=O)N[C@H](C(=O)NCC(N)=O)C(C)C)C(C)C (single isomer, unassigned) [DELTORPHIN C]	6.17	< 5.00
Cc1ccc(C[C@H](NC(=O)[C@H](C)NC(=O)[C@@H](N)Cc2ccc(O)cc2)C(=O)N[C@@H](CC(=O)O)C(=O)N[C@H](C(=O)N[C@H](C(=O)NCC(N)=O)C(C)C)C(C)C)cc1	< 5.00	< 5.00
CC(C)[C@H](NC(=O)[C@H](CC(=O)O)NC(=O)[C@H](Cc1cccs1)NC(=O)[C@H](C)NC(=O)[C@@H](N)Cc1ccc(O)cc1)C(=O)N[C@H](C(=O)NCC(N)=O)C(C)C (H-YA[2Thi]DVVG-NH2)	6.38	< 5.00
CC(C)[C@H](NC(=O)[C@H](CC(=O)O)NC(=O)[C@H](Cc1ccccn1)NC(=O)[C@H](C)NC(=O)[C@@H](N)Cc1ccc(O)cc1)C(=O)N[C@H](C(=O)NCC(N)=O)C(C)C (H-YA[2Pal]DVVG-NH2)	5.53	< 5.00
CC(C)[C@H](NC(=O)[C@H](CC(=O)O)NC(=O)[C@H](Cc1cccc(F)c1)NC(=O)[C@H](C)NC(=O)[C@@H](N)Cc1ccc(O)cc1)C(=O)N[C@H](C(=O)NCC(N)=O)C(C)C (stereo in doubt; 2b)	5.46	< 5.00
CC(C)[C@H](NC(=O)[C@H](CC(=O)O)NC(=O)[C@H](Cc1ccc(F)cc1)NC(=O)[C@H](C)NC(=O)[C@@H](N)Cc1ccc(O)cc1)C(=O)N[C@H](C(=O)NCC(N)=O)C(C)C	5.00	< 5.00
Cc1c(C)c(C)c(C[C@H](NC(=O)[C@H](C)NC(=O)[C@@H](N)Cc2ccc(O)cc2)C(=O)N[C@@H](CC(=O)O)C(=O)N[C@H](C(=O)N[C@H](C(=O)NCC(N)=O)C(C)C)C(C)C)c(C)c1C (stereo in doubt; 5b)	< 5.00	< 5.00
CC(C)[C@H](NC(=O)[C@H](CC(=O)O)NC(=O)[C@H](Cc1cccnc1)NC(=O)[C@H](C)NC(=O)[C@@H](N)Cc1ccc(O)cc1)C(=O)N[C@H](C(=O)NCC(N)=O)C(C)C (H-YA[3Pal]DVVG-NH2)	5.00	< 5.00
